{"source": "patent US9765328B2", "about": "“Nuclease-resistant DNA analogues” (Arizona Board of Regents on Behalf of Arizona State …, priority 2014, dated 2017)", "key": {"[1]": {"assay": "Chemical stability assay, alkaline conditions (1 M NaOH)", "assay_type": "physicochemical", "conditions": "65° C.", "description": "The same protocol was used to monitor alkaline stability."}, "[2]": {"system": "phosphodiesterase I from Crotalus adamanteus venom"}, "[3]": {"assay": "Chemical stability assay in pepsin-free simulated gastric fluid (SGF)", "conditions": "SGF pH 1.25, 37° C.", "procedure": "Pepsin-free simulated gastric fluid (SGF) was prepared by autoclaving a solution of NaCl (200 mg) in nanopure water (99 mL) followed by addition of 6N HCl (0.7 mL, pH 1.25). TNA (30 pmol), DNA (45 pmol), and RNA (5 pmol) were added to SGF (20 μL) and incubated for the specified time (up to 72 hours). Following the incubation, the reaction mixture was neutralized by the addition of 1N NaOH and the solutions were stored at −20° C. until the time course was complete. The volume was then reduced to 10 μL, mixed with 10 μL of loading buffer (8 M Urea, 5 mM Tris.HCl, 20 mM EDTA, pH 7.5), and the oligonucleotides were analyzed by denaturing PAGE and imaged.\nWe compared the chemical stability of the all-TNA strand to DNA and RNA oligonucleotides of identical length and similar sequence. […] For these experiments, pepsin-free simulated gastric fluid (SGF, pH 1.25) and 1 M NaOH were used to maintain parity with previous antisense studies^26. For the acidic regime, the TNA, DNA, and RNA samples were incubated in SGF for 72 hours at 37° C."}, "SVPE": {"system": "SVPE", "conditions": "literature; cited from earlier work"}}, "note": "“Also recorded” adds a separate entry of the source. [FANA-N] = 2'-fluoro-arabino (N: the base); {32P} = 5'-32P radiolabel (phosphate); {FAM} = fluorescein (FAM) label", "data": [{"substance": "5′-Fam-CCCCCCCCCCCC-3′ (5' {FAM}, sugars by position and backbone not given here) [DNA]", "values": [{"measurement": "time after which trace amounts of the sample are still visible in 1 M NaOH", "setting": "[1]", "result": 12, "unit": "h"}, {"measurement": "stability against snake venom phosphodiesterase (SVPE)", "setting": "[2]", "result": "digested"}, {"measurement": "strand stability in simulated gastric fluid after 72 hours (3 days)", "setting": "[3]; 72 hours", "result": "stable; also recorded: remained intact"}]}, {"substance": "3′-tttCtCtCtCtt-2′ [size-matched TNA/DNA hybrid]", "values": [{"measurement": "products of SVPE treatment (FIG. 2)", "setting": "[2]", "result": "series of shorter truncated products"}]}, {"substance": "2′-fluoro-arabino nucleic acid (AAAACCCACACCACCA; all [FANA-N], backbone and methylation of C not given here)", "values": [{"measurement": "degradation in the presence of SVPE", "setting": "SVPE", "result": "degrade in minutes"}, {"measurement": "t1/2 in human serum", "result": "< 3", "unit": "h"}]}, {"substance": "5′-32P-UCUCUCUCUCUC-3′ (RNA, 5' {32P}, backbone not given here)", "values": [{"measurement": "time within which the sample is degraded in 1 M NaOH", "setting": "[1]", "result": "≤ 30", "unit": "min"}, {"measurement": "sample degraded in SGF in the first 12 hours", "setting": "[3]; first 12 hours", "result": 85, "unit": "%"}]}]}
